# Results reported in ChEMBL document CHEMBL1201862, “PubChem BioAssay data set” (2004).
#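 Exposure lasted 48 hours, with cells grown in 96-well plates and compounds tested at five concentrations. The concentration for 50% growth inhibition is given as GI50.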 Active and inactive are the calls of the source. Cut-off read from the data, not from the text of the source: active = GI50 up to about 1.1 µM and inactive = higher.
# Legend:
# Assay in all cases: DTP human tumour cell line panel, 48 h
# KM12 = test system: KM12
# UACC-62 = test system: UACC-62
# U-251 = test system: U-251
# NCI-H23 = test system: NCI-H23
# BT-549 = test system: BT-549
# SNB-75 = test system: SNB-75
# OVCAR-5 = test system: OVCAR-5
# K562 = test system: K562
# M14 = test system: M14
# T47D = test system: T47D
# SW-620 = test system: SW-620
# HCC 2998 = test system: HCC 2998
# A549 = test system: A549
# RPMI-8226 = test system: RPMI-8226
# SK-OV-3 = test system: SK-OV-3
# OVCAR-3 = test system: OVCAR-3
# SF-295 = test system: SF-295
# DU-145 = test system: DU-145
# NCI-H226 = test system: NCI-H226
SMILES,GI50 (KM12),GI50 (UACC-62),GI50 (U-251),GI50 (NCI-H23),GI50 (BT-549),GI50 (SNB-75),GI50 (OVCAR-5),GI50 (K562),GI50 (M14),GI50 (T47D),GI50 (SW-620),GI50 (HCC 2998),GI50 (A549),GI50 (RPMI-8226),GI50 (SK-OV-3),GI50 (OVCAR-3),GI50 (SF-295),GI50 (DU-145),GI50 (NCI-H226)
N#C/C=C1\C=CC(O)C(O)C1OC1OC(CO)C(O)C(O)C1O (configuration not stated),> 100 µM (inactive),> 100 µM (inactive),> 100 µM (inactive),> 100 µM (inactive),> 100 µM (inactive),> 100 µM (inactive),> 100 µM (inactive),> 100 µM (inactive),> 100 µM (inactive),> 100 µM (inactive),> 100 µM (inactive),> 100 µM (inactive),> 100 µM (inactive),> 100 µM (inactive),> 100 µM (inactive),> 100 µM (inactive),> 100 µM (inactive),> 100 µM (inactive),
C[C@H]1[C@H](C)CC[C@]2(C(=O)OC3OC(CO)C(O)C(O)C3O)CC[C@]3(C)C(=CC[C@@H]4[C@@]5(C)C[C@H]6OC(=O)c7cc(O)c(O)c(O)c7-c7c(cc(O)c(O)c7O)C(=O)O[C@@H]6C(CO)(CO)[C@@H]5CC[C@]43C)[C@H]12 (some centres not stated),42.9 µM (inactive),99.3 µM (inactive),17.7 µM (inactive),> 100 µM (inactive),> 100 µM (inactive),> 100 µM (inactive),> 95.9 µM (inactive),49.3 µM (inactive),> 100 µM (inactive),> 74.8 µM (inactive),37.6 µM (inactive),82.4 µM (inactive),> 100 µM (inactive),> 100 µM (inactive),> 95.5 µM (inactive),> 43 µM (inactive),40.6 µM (inactive),> 100 µM (inactive),> 91.8 µM (inactive)
Nc1ncnc2nc(N3CCN(CCO)CC3)[nH]c12,> 100 µM (inactive),> 100 µM (inactive),> 100 µM (inactive),> 100 µM (inactive),> 100 µM (inactive),,> 100 µM (inactive),> 100 µM (inactive),> 100 µM (inactive),> 100 µM (inactive),> 100 µM (inactive),> 100 µM (inactive),> 100 µM (inactive),> 100 µM (inactive),> 100 µM (inactive),> 100 µM (inactive),> 100 µM (inactive),> 100 µM (inactive),> 100 µM (inactive)
COc1cc(COC(=O)N2CC=CC2C(=O)O)c([N+](=O)[O-])cc1OC (configuration not stated),> 100 µM (inactive),> 100 µM (inactive),> 100 µM (inactive),> 100 µM (inactive),> 100 µM (inactive),> 100 µM (inactive),> 100 µM (inactive),> 100 µM (inactive),> 100 µM (inactive),> 100 µM (inactive),> 100 µM (inactive),> 100 µM (inactive),> 100 µM (inactive),> 100 µM (inactive),> 100 µM (inactive),> 100 µM (inactive),> 100 µM (inactive),> 100 µM (inactive),> 100 µM (inactive)
COC1OC(C)C(NC(=O)OCC(Cl)(Cl)Cl)C2OC(C)(C)OC12 (configuration not stated),> 100 µM (inactive),> 100 µM (inactive),> 100 µM (inactive),> 100 µM (inactive),> 100 µM (inactive),,> 100 µM (inactive),> 100 µM (inactive),> 100 µM (inactive),> 100 µM (inactive),> 100 µM (inactive),> 100 µM (inactive),> 100 µM (inactive),> 100 µM (inactive),> 100 µM (inactive),> 100 µM (inactive),> 100 µM (inactive),> 100 µM (inactive),> 100 µM (inactive)
O=C1c2cc(Cl)ccc2N=C(NCCCl)C2CSCN12 (configuration not stated),> 100 µM (inactive),> 100 µM (inactive),> 100 µM (inactive),,> 100 µM (inactive),,> 100 µM (inactive),70.1 µM (inactive),> 100 µM (inactive),> 100 µM (inactive),> 100 µM (inactive),> 100 µM (inactive),> 100 µM (inactive),> 100 µM (inactive),> 100 µM (inactive),> 100 µM (inactive),> 100 µM (inactive),> 100 µM (inactive),> 100 µM (inactive)
NS(=O)(=O)c1ccc(Nc2c3ccccc3nc3c(C(=O)NC(CO)(CO)CO)cccc23)cc1,0.158 µM (active),0.138 µM (active),0.119 µM (active),0.15 µM (active),0.126 µM (active),,0.233 µM (active),0.19 µM (active),0.186 µM (active),0.0815 µM (active),0.163 µM (active),0.212 µM (active),0.123 µM (active),0.217 µM (active),0.188 µM (active),0.15 µM (active),0.294 µM (active),0.194 µM (active),0.136 µM (active)
Cc1c(C(=O)OCc2ccccc2)[n+]([O-])c2cc(Cl)c(Cl)cc2[n+]1[O-],10.5 µM (inactive),14.9 µM (inactive),24.6 µM (inactive),18.5 µM (inactive),20.4 µM (inactive),,21.3 µM (inactive),23.6 µM (inactive),15 µM (inactive),5.48 µM (inactive),,15.2 µM (inactive),11.1 µM (inactive),6.46 µM (inactive),22.5 µM (inactive),12.2 µM (inactive),16.8 µM (inactive),14.5 µM (inactive),5.77 µM (inactive)
C/C=C/COc1cc(NC(=S)OC(C)C)ccc1Cl.C/C=C\COc1cc(NC(=S)OC(C)C)ccc1Cl,17.4 µM (inactive),15.8 µM (inactive),16.9 µM (inactive),16.9 µM (inactive),19.6 µM (inactive),,19 µM (inactive),,24.2 µM (inactive),16.9 µM (inactive),17.1 µM (inactive),16.1 µM (inactive),15.6 µM (inactive),70.1 µM (inactive),21.9 µM (inactive),18.5 µM (inactive),20.2 µM (inactive),26.5 µM (inactive),17.5 µM (inactive)
N=C(N)c1ccc(/N=N\c2c(O)ccc3cc4c(/N=N\c5ccc(C(=N)N)cc5)c(O)ccc4cc23)cc1,> 100 µM (inactive),> 100 µM (inactive),51.1 µM (inactive),,> 100 µM (inactive),> 100 µM (inactive),> 100 µM (inactive),31.2 µM (inactive),> 100 µM (inactive),96.8 µM (inactive),87.1 µM (inactive),> 100 µM (inactive),> 100 µM (inactive),28 µM (inactive),> 100 µM (inactive),> 100 µM (inactive),50.8 µM (inactive),> 100 µM (inactive),> 100 µM (inactive)
NC(=O)c1ccc(NS(=O)(=O)c2ccc(N)cc2)nc1,> 100 µM (inactive),> 100 µM (inactive),> 100 µM (inactive),> 100 µM (inactive),> 100 µM (inactive),> 100 µM (inactive),> 100 µM (inactive),> 100 µM (inactive),> 100 µM (inactive),> 100 µM (inactive),> 100 µM (inactive),> 100 µM (inactive),,> 100 µM (inactive),> 100 µM (inactive),> 100 µM (inactive),> 100 µM (inactive),> 100 µM (inactive),> 100 µM (inactive)
